# Legend:
# [1] = target: T1, VDAC1 (Mus musculus, UniProt Q60932); experiment: Mitochondrial calcium imaging (mito-GCaMP2, multiphoton) in mSC of mouse sciatic nerve, nerve crush model; format: in vivo; conditions: for mSC mitochondria calcium concentration: non-crushed nerves, two hours after injections, compared to vehicle injection; for mitochondrial calcium release in mSC after nerve crush: mito-GCaMP2, VDAC1 silenced or drug given before crush
# T1 construct: strongly expressed in mSC mitochondria; from tissue; host or cells: myelinating Schwann cells (mSC) of the sciatic nerve of living mice (wild type; db/db and +/db in A10)
# Method: (§1) Mice were anesthetized with isoflurane inhalation and placed under a Stemi2000 microscope (Zeiss). Incision area was shaved and cleaned using betadine solution. After incision, the gluteus superficialis and biceps femoris muscles were separated to reveal the cavity traversed by the sciatic nerve. The nerve was lift out using spatula and a thin glass needle filled with viral solution (8 μl) was introduced into the nerve with a micromanipulator. This solution was injected over 30 min with short pressure pulses using a Picospritzer III (Parker Hannifin) coupled to a pulse generator. After injection, the nerve was replaced into the cavity, the muscles were readjusted, and the wound was closed using clips (for further details see Gonzalez et al., 2014^3).
# (§2) TRO19622 drug (Tocris bioscience, Ref. 2906) was diluted in ethanol to 20 mM and then, the solution was diluted in sterile PBS to 20 μM. TRO19622 treatments were realized by 3 mg/kg intraperitoneal (IP) injections of 20 mM solution or by intra sciatic nerve injections of 2 μl of drug solution 2 μM using a Hamilton syringe or a glass needle in sterile conditions 30 minutes before multiphoton image acquisitions or immunohistochemistry and demyelination studies respectively. Methyl jasmonate drug (Sigma-Aldrich, Ref. 392707) was diluted in 1 ml of sterile PBS to 1M or 3M. Methyl jasmonate treatments were realized by intra sciatic nerve injections of 1 μl of drug solution using a glass needle and micromanipulator in sterile conditions following the same virus injections procedure (see in vivo virus injection in the sciatic nerve method) two hours before multiphoton image acquisition. […] All drug concentrations were previously evaluated by Bordet et al, 2007^5; Goldin et al, 2008^6; Sharov et al, 2007^7.
# (§3) First injected mouse was anesthetized with 5% of isoflurane a 1.5% of oxygen into the anesthesia system box (World Precision Instruments, Ref. EZ-B800) for 5 minutes. Anesthesia controls were realized^8. Then, mouse was placed in anesthesia mask and the incision area was shaved and cleaned with betadine and ethanol 70% solution. Incision was realized using a scalpel and the skin was retracted using forceps in order to expose the gluteus superficialis and bleeps femoris muscles. Next, the connective tissue that connects both muscles was cut and the sciatic nerve was gently lifted out using a spatula. A flexible bridge was slide below sciatic nerve and it was placed into a plastic first pool fixed to the bridge. Mouse was placed under the multiphoton microscope, the bridge was fixed using magnetic brackets to avoid physiological movement and mouse legs were fixed using clippers. Microscope dark box temperature is controlled to 37° C. during all time-lapse imaging. Finally, a second pool was fixed to the first pool using a drop of agarose low melting 3% (Promega, Ref. V2111) in Leibovitz's L15 medium (Gibco Life Technologies) and filled with deionized water to immerse the objectives 20× or 63× (Carl Zeiss Microscopy).
# (§4) All time-lapse images were obtained with a multiphoton microscope Zeiss LSM 7 MP OPO. Mitochondria motility images were acquired by time-lapse recording of one image every five minutes during five hours at 920 nm. GCaMP2 and SypHer probe images were acquired by time-lapse recording of one image every fifteen minutes during five hours at 985 nm. Images were acquired to constant 1% of laser intensity to 100 msec of acquisition time with 512×512 resolution and 10 images of z-stack of 20 μm. Images were saved in Zeiss .czi format and processed using Image J program. For further details see Gonzalez et al., 201X^8
# (§5) To characterize mitochondria physiology during the demyelination process we combined two in vivo methods. We used the nerve crush model to reliably induce demyelination in the mouse sciatic nerve and a viral approach^19 allowing the expression of different fluorescent probes selectively into mitochondria of myelinating Schwann cells (mSC) in mouse sciatic nerve.
# [2] = target: T1, VDAC1; experiment: Cytoplasmic calcium imaging (GCaMP2, multiphoton) in mSC of mouse sciatic nerve; format: in vivo; conditions: for presence of cytoplasmic calcium in mSC after crush: cytoplasmic GCaMP2, after nerve crush
# Method: as §1, §2, §3, §4
# as §5, with “nerve. […]” for “nerve.”
# [3] = test system: mSC mitochondria; experiment: Mitochondrial pH imaging (mito-SypHer) in mSC of mouse sciatic nerve; format: in vivo
# Method: as §1, §2
# First injected mouse was anesthetized with 5% of isoflurane a 1.5% of oxygen into the anesthesia system box (World Precision Instruments, Ref. EZ-B800) for 5 minutes. Anesthesia controls were realized^8. Then, mouse was placed in anesthesia mask and the incision area was shaved and cleaned with betadine and ethanol 70% solution. […]
# [4] = test system: mSC mitochondria; experiment: Mitochondrial motility imaging (mito-dsRed2) in mSC of mouse sciatic nerve; format: in vivo; conditions: for loss of mitochondrial motility after nerve crush: 5 hours after nerve injury, TRO19622 30 minutes before crush
# Method: as §1, §2, §3
# as §4, with “Images were saved in Zeiss .czi format and processed using Image J program. For further details see Gonzalez et al., 201X^8” left out
# [5] = test system: phospho-ERK1/2, phospho-p38, phospho-JNK and phospho-c-jun; experiment: Western blot of demyelination signaling pathways in sciatic nerve after crush or MJ; format: in vivo, mouse; conditions: nerves not crushed; 4 or 12 hours after treatment
# Method: as §2
# [6] = test system: phospho-c-jun; experiment: Immunohistochemistry of nuclear phospho-c-jun in mSC after nerve crush or MJ; format: in vivo, mouse; conditions: for nuclear phospho-c-jun in mSC after nerve crush: immunohistochemistry, TRO19622 30 minutes prior crush
# Method: The dissected nerve was washed in L15 medium, fixed in Zamboni's fixative (Stefanini et al., 1967^4) for 10 min at room temperature, washed in PBS, and incubated in successive glycerol baths (15, 45, 60, 66% in PBS) for 18 to 24 h each before freezing at −20° C. The nerves were cut in small pieces in 66% glycerol and the perineurium sheet removed. Small bundles of fibers were teased in double-distilled water on Superfrost slides, dried overnight at room temperature, and the slides stored at −20° C. For immunostaining, the teased fibers were incubated for 1 h at room temperature in blocking solution (10% goat serum, 0.2% TritonX100, and 0.01% sodium azide in PBS). Then, the samples were then incubated with anti-ECCD2 primary mouse antibody (1/100, BD biosciences, Ref. 610181), anti-phosphoS63-c-jun primary mouse antibody (1/200, BD Biosciences, Ref. 558036), anti-c-jun primary mouse antibody (1/200, BD Biosciences, Ref. 610326), anti-VDAC primary rabbit antibody (1/100, Cell Signaling, Ref. 4866) or/and MitoTracker Red (1/1000, Molecular Probes, Ref. M7515) in blocking solution overnight at 4° C. The next day, the samples were washed in PBS and incubated for 1 h at room temperature with secondary donkey antibodies coupled to Alexa488, Alexa 594 or Alexa647 (1/1600, Molecular probes) and TO-PRO-3 iodide (50 μM, Invitroge, Ref. T3605). Finally the samples were washed in PBS and mounted in Immu-mount (Thermo Scientific). Images were acquired at room temperature using a 20× or 40× objective, a Zeiss confocal microscope LSM710, and its associated software.
# as §2
# To go further we also selectively silenced VDAC1 in mSC and measured the expression level of nuclear phospho-c-jun by immunohistochemistry after nerve crush. […]
# [7] = test system: myelinating Schwann cells; experiment: mSC demyelination morphology (confocal microscopy) four days after nerve crush; format: in vivo, mouse; conditions: for number of myelinating cell remaining after crush: four days after crush
# Method: as §1, §2
# Finally we also investigated the demyelination using typical defects induced in the cellular morphology of mSC. Nerves expressing control or VDAC1 shRNAs were crushed to induce demyelination and four days later, when demyelination is maximal, we analyzed the morphology of VDAC1-silenced mSC using confocal microscopy as described previously^19. mSC display long homogenous noodle-like morphology with a regular diameter but during demyelination, they acquire a heterogeneous morphology often alterning large structures (myelin ovoids) with thin processes and their extremities split in fine extensions.
# [8] = test system: phospho-bcl2, cleaved caspase-3; conditions: after MJ treatment
# Method: To investigate the signaling pathways induced by mitochondrial calcium release, sciatic nerves were treated with vehicle or TRO19622 before crush or with MJ without crush and phosphorylation-activated pathways were determined by western blot 4 hours or 12 hours after nerve crush or MJ treatment. […] While it is known that SC demyelination is not due to cell death but to a dedifferentiation process, we nevertheless checked mitochondria-related cell death factors in crushed or MJ treated nerves.
# T1 sequence (Q60932 14-296): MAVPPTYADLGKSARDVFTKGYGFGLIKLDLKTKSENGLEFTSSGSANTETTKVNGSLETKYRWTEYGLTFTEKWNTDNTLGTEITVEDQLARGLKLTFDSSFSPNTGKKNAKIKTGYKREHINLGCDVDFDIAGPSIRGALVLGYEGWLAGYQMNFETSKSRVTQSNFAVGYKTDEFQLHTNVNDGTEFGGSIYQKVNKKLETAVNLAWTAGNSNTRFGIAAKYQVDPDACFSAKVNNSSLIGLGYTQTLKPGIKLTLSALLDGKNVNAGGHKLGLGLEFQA
compound,measurement,setting,value
"CC/C=C\CC1C(=O)CCC1CC(=O)OC (centres unmarked) [MJ, methyl jasmonate]",mSC mitochondria calcium concentration,[1],sharply decreased
same,mSC mitochondria calcium concentration,[1]; listed as methyl jasmonate,induced mitochondrial calcium release
same,calcium presence in the cytoplasm,"[2]; MJ treatment, non-crushed nerves",increased
same,mitochondrial pH,[3]; non-crushed nerves,increase
same,mitochondrial motility,[4]; without crush,decreased
same,phosphorylation-activated pathways and phospho-c-jun,[5],significant increase
same,nuclear phospho-c-jun,[6]; nerves treated with MJ,robust increase
same,number of demyelinating cells,[7]; non-crushed sciatic nerves,significant increase
same,phospho-bcl2 and cleaved caspase-3 levels,[8],Neither phospho-bcl2 nor cleaved caspase-3 levels were increased
"VDAC1 shRNA2: VDAC1 shRNA sequence 2 GTTGGCTATAAGACGGATGAACT (Sigma-Aldrich, Ref. #TRCN0000012391), expressed from AAV vector (expressed from AAV vector)",mitochondrial calcium release in mSC after nerve crush,[1],significantly reduced
same,presence of cytoplasmic calcium in mSC after crush,[2],more modest
same,loss of mitochondrial motility after nerve crush,[4],significantly prevented
same,nuclear phospho-c-jun in mSC after nerve crush,[6],strong reduction
same,number of myelinating cell remaining after crush,[7],significant increase
"VDAC1 shRNA3: VDAC1 shRNA sequence 3 ACCAGGTATCAAACTGACGTTCT (Sigma-Aldrich, Ref. #TRCN0000012392), expressed from AAV vector (expressed from AAV vector)",mitochondrial calcium release in mSC after nerve crush,[1],completely inhibited
same,mitochondrial calcium release in mSC after nerve crush,[1]; listed as VDAC shRNA3,completely abolished
same,part of the calcium appearing in the cytoplasm after nerve crush that is not abolished (non-mitochondrial origin),[2]; after nerve crush with VDAC1 silenced or blocked,13%
same,presence of cytoplasmic calcium in mSC after crush,[2],strongly reduced
same,changes induced by nerve crush in mitochondrial pH not abrogated,[3]; after nerve crush,12%
same,loss of mitochondrial motility after nerve crush,[4],significantly prevented
same,changes induced by nerve crush in mitochondrial motility not abrogated,[4]; after nerve crush,20%
same,nuclear phospho-c-jun in mSC after nerve crush,[6],strong reduction
same,number of myelinating cell remaining after crush,[7],significant increase

# From patent publication US12053480B2, “Methods and pharmaceutical compositions for treating peripheral demyelinating diseases” (INSERM (INSTITUT NATIONAL DE LA SANTE ET DE LA RECHERCHE …, priority 2015, dated 2024)
